Measurements published in PubChem BioAssay (NCI).
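The compound was tested at five concentrations on cells cultured in 96-well plates, with a 48-hour exposure period. At the TGI there is no net growth.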

Key:
Assay in all cases: NCI anticancer screen, dose series, 48 h
RXF 393 renal = test system: RXF 393 renal
HCC-2998 colon = test system: HCC-2998 colon
K-562 leukemia = test system: K-562 leukemia
CCRF-CEM leukemia = test system: CCRF-CEM leukemia
MDA-N = test system: MDA-N
PC-3 prostate = test system: PC-3 prostate
UACC-62 melanoma = test system: UACC-62 melanoma
EKVX NSCLC = test system: EKVX NSCLC
SK-MEL-28 melanoma = test system: SK-MEL-28 melanoma
HT29 colon = test system: HT29 colon
NCI-H23 lung = test system: NCI-H23 lung
KM12 colon = test system: KM12 colon
TK-10 renal = test system: TK-10 renal
HL-60(TB) leukemia = test system: HL-60(TB) leukemia
OVCAR-5 ovarian = test system: OVCAR-5 ovarian
SR leukemia = test system: SR leukemia
A498 renal = test system: A498 renal
ACHN renal = test system: ACHN renal

Row | Structure (SMILES) | TGI (RXF 393 renal) | TGI (HCC-2998 colon) | TGI (K-562 leukemia) | TGI (CCRF-CEM leukemia) | TGI (MDA-N) | TGI (PC-3 prostate) | TGI (UACC-62 melanoma) | TGI (EKVX NSCLC) | TGI (SK-MEL-28 melanoma) | TGI (HT29 colon) | TGI (NCI-H23 lung) | TGI (KM12 colon) | TGI (TK-10 renal) | TGI (HL-60(TB) leukemia) | TGI (OVCAR-5 ovarian) | TGI (SR leukemia) | TGI (A498 renal) | TGI (ACHN renal)
1 | O=C(/C=C/c1ccc(OCc2ccccc2)cc1)NCc1ccc(C(=O)NCCc2c[nH]c3ccccc23)cc1 | 24.9 µM | > 100 µM | > 100 µM | > 100 µM | > 100 µM | 55 µM | 51.7 µM | > 100 µM | > 100 µM | > 56.6 µM | 38.8 µM | > 100 µM | > 43 µM | > 100 µM | 69.4 µM | > 55.3 µM | > 100 µM | > 100 µM
2 | CC(C)c1ccc(C2NC(=S)NC3=C2c2ccccc2C3=O)cc1 (configuration not stated) | 23.9 µM | > 51.7 µM | > 60 µM | > 68 µM | 20.6 µM | 23.5 µM | > 52.8 µM | > 58.6 µM | 57.9 µM | > 59 µM | > 59.2 µM | > 58.7 µM | > 57.1 µM | 32.5 µM | > 64.2 µM | 30.6 µM | > 60.8 µM | > 55.9 µM
3 | C[C@@H]1[C@H](O)CC2=C(CC[C@@H](O)C2(C)C)[C@@]1(CO)CCc1ccoc1 | > 50 µM | > 50 µM | > 50 µM | > 50 µM | > 50 µM | > 50 µM | > 50 µM | > 50 µM | > 50 µM | > 50 µM | > 50 µM | > 50 µM | > 50 µM | > 50 µM | > 50 µM | > 50 µM | > 50 µM | > 50 µM
4 | O=C(O)CCO/N=C1/C(c2c(O)[nH]c3ccccc23)=Nc2ccccc21 | 17.5 µM | 35.7 µM | > 100 µM | 40.3 µM | > 100 µM | > 100 µM | 46.9 µM | 47.9 µM | > 100 µM | 79.4 µM | 66.5 µM | 38.9 µM | > 100 µM | 62.4 µM | > 100 µM | 57.9 µM | 74.2 µM | > 100 µM
5 | CC(C)(C)OC(=O)N1CC(CCl)c2ccc(O)cc21 (configuration not stated) | 2.85 µM | 2.02 µM | 14.2 µM | 9.61 µM | 3.67 µM | 5.51 µM | 4.56 µM | 6.73 µM | 4.17 µM | 11 µM | 2.32 µM | 4.6 µM | 7.47 µM | 5.29 µM | 10.2 µM | > 100 µM | 4.82 µM | 3.38 µM
6 | Cc1cccc(NC(=O)O/N=C(\Cl)C(C)C)c1 | 26.9 µM | 33.8 µM | > 100 µM | 3.9 µM | 25 µM | 30.9 µM | 29.6 µM | 11.1 µM | 26.7 µM | 27.2 µM | 29.1 µM | 36 µM | 27.3 µM | 4.27 µM | 35.8 µM | 4.4 µM | 34.4 µM | 3.94 µM
7 | O=C1C[C@H](COCc2ccccc2)NC(=O)C[C@H](COCc2ccccc2)NC(=O)C[C@H](COCc2ccccc2)N1 | 27.1 µM | > 100 µM | > 100 µM | > 100 µM | > 100 µM | > 100 µM | > 100 µM | > 100 µM | > 100 µM | > 100 µM | > 100 µM | > 100 µM | 41.1 µM | > 100 µM | > 100 µM | > 100 µM | 42 µM | > 100 µM
8 | c1csc(-c2nccc3c2[nH]c2ccccc23)c1 | 36.1 µM | 39.6 µM | 63.8 µM | 51.5 µM | 35.4 µM | 61.3 µM | 62.4 µM | 84.9 µM | 43 µM | 29.3 µM | 38.2 µM | 34.4 µM | 48.7 µM | 55.9 µM | 85.5 µM | 48 µM | 33.9 µM | 73.7 µM
9 | C=C(Cl)/C(=C\Cl)CCC(Cl)C(C)C (configuration not stated) | > 100 µM | > 100 µM | > 100 µM | > 100 µM | > 100 µM | > 100 µM | > 100 µM | > 100 µM | > 100 µM | > 100 µM | > 100 µM | > 100 µM | > 100 µM | > 100 µM | > 100 µM | > 100 µM | > 100 µM | > 100 µM
10 | O=C(O)c1nc2ccc(Cl)cc2[nH]c1=O | > 100 µM | > 100 µM | > 100 µM | > 100 µM | > 100 µM | > 100 µM | > 100 µM | > 100 µM | > 100 µM | > 100 µM | > 100 µM | > 100 µM | > 100 µM | > 100 µM | > 100 µM | > 100 µM | > 100 µM | > 100 µM
11 | CNCCCNC(=S)Cn1cc(C)c(=O)[nH]c1=O | > 95.5 µM | > 69 µM | > 100 µM | > 50 µM | > 100 µM | > 100 µM | > 63.5 µM | > 100 µM | > 75.4 µM | > 100 µM | > 81.8 µM | > 78.8 µM | > 100 µM | > 54 µM | > 100 µM | > 100 µM | > 74.8 µM | > 74.3 µM
12 | COC(=O)CN(CC(O)C(NC(C)=O)C(O)C=O)C(=O)OCc1ccccc1 (configuration not stated) | > 100 µM | > 100 µM | > 100 µM | > 100 µM | > 100 µM | > 100 µM | > 100 µM | > 100 µM | > 100 µM | > 100 µM | > 100 µM | > 100 µM | > 100 µM | > 100 µM | > 100 µM | > 100 µM | > 100 µM | > 100 µM
13 | CCOC(=O)c1nc2ccccc2nc1NCc1ccc(OC)c(OC)c1 | > 100 µM | > 100 µM | > 100 µM | > 100 µM | > 100 µM | > 100 µM | > 100 µM | > 100 µM | > 100 µM | > 100 µM | > 100 µM | > 100 µM | > 100 µM | > 100 µM | > 100 µM | > 100 µM | > 100 µM | > 100 µM
14 | O/N=C1\CC2(N3CCOCC3)CCC1(c1ccccc1)CC2 | > 100 µM | > 100 µM | > 100 µM | > 100 µM | > 100 µM | > 100 µM | > 100 µM | > 100 µM | > 100 µM | > 100 µM | > 100 µM | > 100 µM | > 100 µM | > 100 µM | > 100 µM | > 100 µM | > 100 µM | > 100 µM
15 | CN(CCNC(=O)c1c[nH]c2c1ccc1ccccc12)CCNC(=O)c1c[nH]c2c1ccc1ccccc12 | 2.62 µM | 2.87 µM | 3.31 µM | 3.86 µM | 5.63 µM | 6.68 µM | 3.46 µM | 11.1 µM | 4.16 µM | 3.5 µM | 11.3 µM | 3.29 µM | 9.75 µM | 4.29 µM | 12.3 µM | 4.69 µM | 8.47 µM | 4.72 µM
16 | CCCN(CCC)C(=S)N/N=C(/C)c1ccccc1O | > 87.1 µM | > 100 µM | > 100 µM | > 33.9 µM | > 100 µM | > 100 µM | 15.1 µM | > 68.9 µM | > 100 µM | > 100 µM | > 68.2 µM | > 100 µM | 66.4 µM | > 29.5 µM | > 62.9 µM | 8.92 µM | 36.3 µM | > 51.9 µM
17 | Cc1cc(S(=O)(=O)Nc2nnc3c4ccccc4cnn23)c(S)cc1Cl | > 100 µM | > 100 µM | > 100 µM | > 100 µM | > 100 µM | > 100 µM | > 100 µM | > 100 µM | > 100 µM | > 100 µM | > 100 µM | > 100 µM | > 100 µM | > 100 µM | > 100 µM | > 100 µM | > 100 µM | > 100 µM
18 | CNC(=O)N(CCC#N)CCN(C(=O)N(C)C)c1ccccc1 | > 100 µM | > 100 µM | > 100 µM | > 100 µM | > 100 µM | > 100 µM | > 100 µM | > 100 µM | > 100 µM | > 100 µM | > 100 µM | > 100 µM | > 100 µM | > 100 µM | > 100 µM | > 100 µM | > 100 µM | > 100 µM
19 | O/N=C(/C(Cl)=C(Cl)Cl)C(Cl)Cl | 30.5 µM | 79.6 µM | 38 µM | 36.7 µM | 32.8 µM | 33.9 µM | 77.2 µM | > 100 µM | 30.2 µM | 30.3 µM | 30.7 µM | 47.4 µM | 34.7 µM | 26.3 µM | 49.4 µM | 26.7 µM | > 100 µM | 32 µM
20 | COC(=O)c1c(C)[nH]c2c1C(=O)C(=O)c1nc(C)c(C)nc1-2 | 13.4 µM | 24 µM | > 100 µM | 35.7 µM | 19.9 µM | 29.3 µM | 18.9 µM | 22.6 µM | 25.2 µM | 59.6 µM | 36.9 µM | 37.1 µM | 9.68 µM | 29.2 µM | 27.6 µM | 44.9 µM | 40 µM | 47.3 µM
21 | O=[N+]([O-])c1ccc(-n2nc3ccc4c(no[n+]4[O-])c3[n+]2[O-])c([N+](=O)[O-])c1 | 5.37 µM | 8.77 µM | 5.75 µM | 3.68 µM | 4.47 µM | 20.7 µM | 7.72 µM | 26.6 µM | 6.47 µM | 15.1 µM | 5.43 µM | 13.1 µM | 6.88 µM | 5.43 µM | 17 µM | > 21.4 µM | 16.3 µM | 5.7 µM
22 | CCN(CC)Cc1ccccc1CC(=O)N1c2ccccc2C(=O)Nc2cccnc21 | > 100 µM | > 100 µM | > 100 µM | > 100 µM | > 100 µM | > 100 µM | > 100 µM | > 100 µM | > 100 µM | > 100 µM | > 100 µM | > 100 µM | > 100 µM | > 100 µM | > 100 µM | 72.2 µM | > 100 µM | > 100 µM
23 | Cn1c(=O)c2sc3c4sc5c(=O)n(C)c6ccccc6c5c4sc3c2c2ccccc21 | 97.6 µM | > 100 µM | > 100 µM | > 100 µM | > 100 µM | > 100 µM | > 100 µM | > 100 µM | > 100 µM | > 100 µM | > 100 µM | > 100 µM | > 100 µM | > 100 µM | > 100 µM | > 100 µM | > 100 µM | > 100 µM
24 | c1ccc2c(c1)nc1n2CSCC1 | > 100 µM | > 100 µM | > 100 µM | > 100 µM | > 100 µM | > 100 µM | > 100 µM | > 100 µM | > 100 µM | > 100 µM | > 100 µM | > 100 µM | > 100 µM | > 100 µM | > 100 µM | > 100 µM | > 100 µM | > 100 µM
